Data reported in patent US20020077322A1, “Protection of neurons against glutamate-induced damage in glaucoma and other conditions” (priority 2000, published 2002).

Key:
Type in all cases: in vivo, C57/BL6 mice
retinal ganglion cells [1] = experiment: Effect of cannabinoid antagonists on WIN protection of NMDA-treated retinal ganglion cells (Example 3); conditions: preliminary tests
Description: A topical application of 0.5% proparacaine hydrochloride was administered prior to intravitreal injections. A small incision was made with a 22-gauge needle in the dorsal limbus, through the conjunctiva and sclera. A Hamilton syringe was passed through this incision at a 40 to 50 degree angle to the equator to administer the solution. All eyes were injected with 0.5 μl of solution. All procedures were performed under microscopy. […] These mice were not used in the analysis.
Tissue Preparation: Flat mount preparations of the retinae and counts of cells in the retinal ganglion cell layers were performed to evaluate cell loss. Ten days after intravitreal injections, animals were euthanized by an intraperitoneal overdose injection of pentobarbital. Animals were immediately perfused with 4% paraformaldehyde, and the eyes enucleated. The retinae were dissected and mounted onto gelatinized slides, ganglion cell layer up. […]

retinal ganglion cells [2] = experiment: Intravitreal NMDA with or without co-injected WIN 55,212-2; counts of surviving cells in the retinal ganglion cell layer (Example 1)
Description: (§1) Experiments were performed on adult C57/BL6 mice of an average of 4 months, weighing 15-25 g. Animals were given food and water ad libitum. All studies were conducted in accordance with the principles and procedures outlined in the National Institute of Health (NIH) Guide for the Care and Use of Laboratory Animals.
Three sterile solutions were administered by intravitreal injection: balanced saline solution, NMDA (Sigma) and NMDA plus WIN 55,212-2 (Sigma). The NMDA solution was comprised of 320 mM NMDA in balanced saline solution (net of 160 nmol of NMDA injected per eye). The WIN solution contained 0.5 mM WIN 55,212-2 in the NMDA solution using a DMSO vehicle (less than 0.1% of solution) to carry WIN (net of 0.25 nmol of WIN injected per eye).
(§2) Intravitreal Injections Mice were anaesthetized by intraperitoneal injection of 0.017 ml/g body weight of a solution containing 1.75% tribromoethanol and 1.75% tertiary amyl alcohol. A topical application of 0.5% proparacaine hydrochloride was administered prior to intravitreal injections. A small incision was made with a 22-gauge needle in the dorsal limbus, through the conjunctiva and sclera. A Hamilton syringe was passed through this incision at a 40 to 50 degree angle to the equator to administer the solution. All eyes were injected with 0.5 μl of solution. All procedures were performed under microscopy. Occasionally this procedure produced cataracts in mice (less than 5%) due to damage to the lens with the syringe. These mice were not used in the analysis.
(§3) Tissue Preparation Flat mount preparations of the retinae and counts of cells in the retinal ganglion cell layers were performed to evaluate cell loss. Ten days after intravitreal injections, animals were euthanized by an intraperitoneal overdose injection of pentobarbital. Animals were immediately perfused with 4% paraformaldehyde, and the eyes enucleated. The retinae were dissected and mounted onto gelatinized slides, ganglion cell layer up. Several radial cuts were made at the periphery, and the surface was cleared and flattened with a fine brush (camel hair, size 0). The flat mounted retinae were immersed overnight in a solution containing 10% formaldehyde and 90% alcohol. The sections were subsequently dehydrated and stained with 0.5-1% cresyl violet and enclosed with coverslips.
Morphometric Analysis (Quantification of Cell Loss in the Retinal Ganglion Cell Layer) The ganglion cell layer was imaged at 400×and cells were counted within 70×70 um grids. […] Quandrant counts from each retina were averaged to give the value for each eye. Morphologically distinguishable glial cells and vascular endothelial cells were excluded from the cell count, but no attempt was made to distinguish between ganglion and amacrine cells. […]

retinal ganglion cells [3] = experiment: Topical WIN55212-2 after intravitreal NMDA; counts of surviving retinal ganglion cells (Example 2)
Description: as §1
Two sterile solutions were administered by intravitreal injection: balanced saline solution, and NMDA (Sigma). The NMDA solution was comprised of 320 mM NMDA in balanced saline solution (net of 160 nmol of NMDA injected per eye).
as §2, with “Injections:” for “Injections”, “0.5μl” for “0.5 μl”
Topical Application of cannabinoid: A topical application solution of WIN55212-2 (Sigma) was prepared in 2-hydroxypropyl-β-cyclodextrin (Sigma). This solution contained 2.4 mg of WIN55212-2 in 1 ml 2-hydroxypropyl-β-cyclodextrin.
10 μl of this WIN55212-2 solution was applied to the anterior surface of the eye. In the experiments described, it was applied three times daily on one eye only. The applications of the WIN solution began one day after the NMDA injections were made, to allow time for the surface of the eye to heal, and the topical applications were made for 9 days. Thus, while each eye received the NMDA injections, only one eye of each animal had the WIN solution applied onto it.
as §3, with “Preparation:” for “Preparation”, “The flat mounted retinae were immersed overnight in a solution containing 10% formaldehyde and 90% alcohol. The sections were subsequently dehydrated and stained with 0.5-1% cresyl violet and enclosed with coverslips.” left out
Morphometric Analysis: The ganglion cell layer was imaged at 400X and 630X and cells were counted within 120×120 μm square grids. […]

[4] = intravitreal, 160 nmol NMDA per eye, 10 day period, vs saline eye
[5] = single intravitreal application, 0.25 nmol WIN per eye with NMDA, 10 days

COc1ccc(C(=O)c2c(C)n(CCN3CCOCC3)c3cc(I)ccc23)cc1 [AM 630]
cell counts with CB2 antagonist in combination with WIN and NMDA (retinal ganglion cells [1]): same cell counts as the WIN+NMDA eye

CN[C@H](CC(=O)O)C(=O)O [NMDA, N-methyl-D-aspartate]
loss of retinal ganglion cells caused by NMDA (retinal ganglion cells [2]; [4]): 70%
loss of retinal ganglion cells caused by NMDA (retinal ganglion cells [3]; [4]): 70%

Cc1c(C(=O)c2cccc3ccccc23)c2cccc3c2n1[C@H](CN1CCOCC1)CO3 [WIN]
increase in number of surviving ganglion cells (NMDA+WIN vs NMDA eye) (retinal ganglion cells [2]; FIG. 5 left pair of bars, data taken from Example 1): by a factor of two
diminution of NMDA-induced ganglion cell loss (retinal ganglion cells [2]; [5]): 80%
resulting loss of ganglion cells with NMDA plus WIN (retinal ganglion cells [2]; [5]): 30%
excitotoxic damage in ganglion cell layer, photomicrographs (FIG. 4) (retinal ganglion cells [3]; NMDA-treated retina, unilateral topical WIN55212-2): ameliorated the excitotoxic damage
retinal ganglion cells protected, contralateral eye (no WIN directly applied) (retinal ganglion cells [3]; WIN applied topically to the other eye, presumably systemic delivery): about 25%
resulting loss of ganglion cells, NMDA plus topical WIN, treated eye (retinal ganglion cells [3]; topical WIN on days 2-9, 10 day period): 30%
